{"source": "patent US20100119589A1", "about": "“LIPOSOMAL COMPOSITION OF ANTIOXIDANTS FOR INHALATIONS CARRIED OUT DURING LUNG AND UPPER RESPIRATORY TRACT DISEASES” (OTKRYTOE AKTSIONERNOE OBSCHESTVO ZAVOD EKOLOGICHES, priority 2006, published 2010)", "key": {"[1]": {"system": "multi lamellar vesicles of soybean phosphatidylcholine (PCh)", "test": "Inhibition of peroxidic oxidation of lipids (POL): TBA-sensitive products in soybean phosphatidylcholine liposomes", "assay_type": "biochemical", "experimental": "The antioxidative activity of preparations with varying combinations of the ingredients was evaluated on the basis of their effect on the increase of concentration of POL products (malondialdehyde or products that are sentitive to thiobarbituric acid (TBA)) in an aqueous dispersion of soybean phospholipids. For this evaluation the concentration in the soybean phospatidylcholine liposomes was measured at an initial moment and after incubation at 37° C. for 60 min. in the absence and presence of POL starters, namely, Fe^3+ ions and ascorbate.\nOriginally a 2.0 percent aqueous dispersion of phospholipides with antioxidants, where wheat germ oil is also present, contains an insignificant amount of products sensitive to TBA (0.8 nmol/ml). This amount rises to 2-2.5 times as much as a result of heating for 60 min. When starters are added to the original system the concentration of POL products rises to 40 nmol/ml during incubation at 37° C. for 60 min., i.e., will be […] as high.\nIncrease of the amount of products sensitive to TBA [nmol/ml] in multi lamellar vesicles of soybean phosphatidylcholine (PCh) containing N-acetyl-L-cysteine as a result of oxidation, the latter caused by introduction of an oxidation starter Pe3+/ascorbat (60 min, 37° C.) into the system, in the absence and presence of various antioxidants (AO)."}, "[2]": {"conditions": "in tablets; cited from earlier work"}}, "data": [{"molecule": "O=C1O[C@H]([C@@H](O)CO)C(O)=C1O", "note": "[ascorbic acid]", "values": [{"measurement": "minimum inhibiting concentration", "setting": "[1]; POL inhibition, ascorbic acid alone", "result": 2500, "unit": "µg/mL"}, {"measurement": "decrease of the concentration of the acid when wheat germ oil is simultaneously present", "setting": "[1]; wheat germ oil and ascorbic acid simultaneously present", "result": 5, "unit": "times"}]}, {"molecule": "O=C1c2c(O)cc(O)cc2O[C@H](c2ccc(O)c(O)c2)[C@H]1O", "note": "[dihydroquercetin]", "values": [{"measurement": "minimum effective concentration", "setting": "[1]; POL inhibition", "result": 0.03, "unit": "mg/mL"}, {"measurement": "antioxidant activity when wheat germ oil was added", "setting": "[1]; wheat germ oil added to dihydroquercetin", "result": "decreased"}]}, {"molecule": "vitamin E", "values": [{"measurement": "bioavailability", "setting": "[2]", "result": 3, "unit": "%"}]}]}
